From US12350308B2, “Phosphorylcholine conjugates and uses thereof” (TPCERA LTD., priority 2013, dated 2025)
Where no end group is shown, it is not given here.

Experiments:
Assay type in all cases: in vivo
[1] = test system: splenocytes of lupus mice; experiment: Cytokine mRNA in splenocytes of lupus mice treated with PC-tuftsin (real time RT-PCR); conditions: normalized to β-actin; vs PBS
Protocol: (§1) Mice, from age of 14 weeks, received subcutaneously PC-tuftsin at the concentration of 50 μg/0.1 ml per mouse (treatment; n=10) or PBS (control; n=10), three times a week. In the cytokines studies, the relative mRNA expression levels of pro-inflammatory cytokine IFNγ and anti-inflammatory cytokine TGFβ were analyzed by real time RT-PCR using LightCycler (Roche). Total RNA was isolated from splenocytes and was reverse-transcribed into cDNA by using Moloney Murine Leukemia Virus Reverse Transcriptase (Promega). The resulting cDNA was subjected to real-time RT-PCR in the presence of specific primers, according to the manufacturer's instructions (Table 2). The relative expression levels of IFNγ and TGFβ were normalized to β-actin levels.

[2] = test system: Tregs CD4+CD25+FOXP3+; experiment: T regulatory cell profiling by FACS in splenocytes of lupus mice (PC-tuftsin study); conditions: PBS 4±0.6 percent
Protocol: as §1
Finally, a T regulatory cell (Tregs) profiling assay was performed in isolated splenocytes incubated with the following antibodies: anti-CD4^+FITC, anti-CD25^+APC and anti-FOXP3^+PE (eBioscience) and analyzed by FACS. Forward and side scatter gates adjusted to include all cells and to exclude debris (Becton Dickinson). Cells were gated on CD4+ cells, and for intracellular staining, the cells were incubated with a fixation solution, washed and resuspended in permeabilization solution (Serotec). Isotype control was used as reference.

[3] = test system: splenocytes of lupus mice; experiment: Secreted cytokine protein of splenocytes of lupus mice treated with PC-tuftsin (DuoSet); conditions: splenocytes incubated 72 hours
Protocol: as §1
Splenocytes protein level of anti-inflammatory cytokines TGFβ, and IL-10 and pro-inflammatory cytokines IFNγ, and IL-17 were quantified by DuoSet (R&D Systems), according to the manufacturer's instructions. Briefly, spleens from mice treated with PC-tuftsin or PBS were harvested, splenocytes were isolated (5×10^6/ml) and incubated for 72 hours and thereafter assessed for contents of secreted cytokines.

[4] = test system: NZBXW/F1 mice; experiment: Kidney morphology in lupus mice treated with PC-tuftsin (PAS, immunofluorescence); conditions: 50 μg/0.1 ml s.c. 3 times a week
Protocol: The effect of PC-tuftsin on the morphology of kidneys was determined in a lupus mouse model as in Examples 2. Kidney section obtained from kidneys of mice sacrificed after treatments were paraffin embedded. PAS staining was used to detect pathology of nephritis. Immunofluorescence staining was used for detecting immune complex deposits. The latter was implemented by incubating the paraffin embedded sections with FITC-conjugated-anti-mouse-IgG. Evaluation was performed by a pathologist.
Mice, from age of 14 weeks, received subcutaneously PC-tuftsin at the concentration of 50 μg/0.1 ml per mouse (treatment; n=10) or PBS (control; n=10), three times a week.

[5] = test system: NZBXW/F1 mice; experiment: Proteinuria in lupus mice treated with PC-tuftsin (Multistix); conditions: 50 μg/0.1 ml s.c. 3 times a week from 14 weeks; vs PBS
Protocol: The effect of PC-tuftsin (TPC) on proteinuria was determined in a mouse model for lupus, specifically, female NZBXW/F1 mice that develop lupus on a genetic background. Proteinuria levels were measured using Multistix (Bayer Diagnostics). This type of measurement is typically used in the clinic for assessing manifestation of lupus nephritis. Lupus nephritis is an inflammation of the kidney caused by systemic lupus erythematosus (SLE).
The mice, from age of 14 weeks, received subcutaneously PC-tuftsin at the concentration of 50 μg/0.1 ml per mouse (treatment; n=10) or PBS (control; n=10), three times a week. Proteinuria was defined as having a protein level of above 100 mg/dl in the urine.

[6] = test system: male C57BL/6 mice; experiment: DSS induced acute colitis in mice; conditions: even after day 12
Protocol: The effect of PC-tuftsin derivative (SEQ ID NO: 25) on colitis development was determined in a mouse model subjected to induction of acute colitis by dextran sulfate sodium (DSS) treatment. Specifically, induction of colitis was carried out in male C57BL/6 mice (“colitis mice”) by supplementing the drinking water (2.5% wt/v) for five days with DSS (mol. wt. 36,000-50,000).
Two groups of mice were fed daily via oral ingestion using a feeding-needle, with PC-tuftsin derivative at a concentration of 500 μg/0.1 ml per mouse (treatment; n=10), or PBS (control; n=10). These compounds were given during 11 days starting two days before DSS administration.
Assessment of colitis development was performed by monitoring body weight, rectal bleeding, stool consistency, and survival every second day. Intestinal bleeding was followed by Hemoccult test and observation of bleeding signs on the anus or gross bleeding. The daily disease activity index (DAI) was calculated by grading on a scale of zero to four the following parameters: change in weight (0, <1%; 1, 1-5%; 2, 5-10%; 3, 10— 15%; and 4, >15%), intestinal bleeding (0, negative; 4, positive), and stool consistency (0, normal; 2, loose stools; 4, diarrhea). The combined scores were then divided by three to obtain the final disease activity index. Ten days following disease induction, mice were sacrificed and the large intestine was collected and evaluated for colon length and microscopic colonic damage. For microscopic scoring, the proximal, medial, and distal portions of the colon and the cecum were fixed in 10% phosphate-buffered formalin. Paraffin-embedded sections were stained with H&E. The degree of histological damage and inflammation was graded in a blinded fashion by an expert pathologist

PC-tuftsin: PC conjugated to tuftsin (threonine-lysine-proline-arginine, TKPR; SEQ ID NO: 17) using 4-aminophenylphosphorylcholine (also: phosphorylcholine conjugated via 4-aminophenylphosphorylcholine, site not given here)
relative mRNA expression of IFNγ in splenocytes [1]: significantly reduced | relative mRNA expression of TGFβ in splenocytes [1]: significantly enhanced | enhancement in Tregs CD4+CD25+FOXP3+ expression level [2]: 18±2% | increase in protein level of IL-10 ([3]; vs PBS): 4.8 | increase in protein level of TGFβ ([3]; vs PBS): 5.1 | reduction of IFNγ concentration ([3]; vs control): 5.2 fold | reduction of IL-17 concentration ([3]; vs control): 2.7 fold | pathology of nephritis (PAS staining) [4]: did not display any pathology of nephritis | immune complex deposits in the glomeruli ([4]; vs PBS): very mild immune complex deposits | proteinuria (protein level above 100 mg/dl) [5]: significant attenuation | mice still alive [6]: 100%
